# Patent US8822449B2, “Substituted aminoindanes and analogs thereof, and the pharmaceutical use thereof” (Sanofi, priority 2008, dated 2014)
# Where two headings read alike, the source gives them in different places.
# Biological target: T1, sodium-proton exchanger of subtype 3 (NHE3) (Homo sapiens, UniProt P48764)
# T1 construct: expressed in transfected cells
# T1 sequence (P48764 26-834): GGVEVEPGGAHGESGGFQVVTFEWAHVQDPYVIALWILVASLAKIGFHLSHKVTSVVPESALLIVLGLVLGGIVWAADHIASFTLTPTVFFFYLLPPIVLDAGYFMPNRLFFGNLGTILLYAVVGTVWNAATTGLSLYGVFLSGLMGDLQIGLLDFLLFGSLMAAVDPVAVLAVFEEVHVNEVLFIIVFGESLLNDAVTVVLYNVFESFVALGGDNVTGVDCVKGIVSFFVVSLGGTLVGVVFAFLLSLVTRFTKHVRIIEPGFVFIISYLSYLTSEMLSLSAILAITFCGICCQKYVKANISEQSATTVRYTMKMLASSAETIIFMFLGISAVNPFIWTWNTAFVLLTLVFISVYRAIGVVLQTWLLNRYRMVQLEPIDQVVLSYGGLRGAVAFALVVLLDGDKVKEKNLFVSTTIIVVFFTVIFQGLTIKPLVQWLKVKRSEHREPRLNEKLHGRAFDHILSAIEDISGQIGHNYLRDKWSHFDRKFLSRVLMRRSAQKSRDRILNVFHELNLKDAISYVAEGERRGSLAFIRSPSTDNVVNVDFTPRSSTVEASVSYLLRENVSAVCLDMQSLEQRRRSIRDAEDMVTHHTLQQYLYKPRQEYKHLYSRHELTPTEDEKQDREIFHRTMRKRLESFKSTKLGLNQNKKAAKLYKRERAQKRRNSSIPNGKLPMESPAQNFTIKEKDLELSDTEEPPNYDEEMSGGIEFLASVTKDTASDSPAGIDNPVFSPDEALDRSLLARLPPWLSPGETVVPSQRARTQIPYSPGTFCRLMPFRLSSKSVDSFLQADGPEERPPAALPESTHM
# Experiment: Recovery of intracellular pH (pHi) after acidification in LAP1 cells stably expressing NHE3 (BCECF fluorescence, FLIPR)
# Assay type: cell-based
# Settings: LAP1 cells stably expressing NHE3, pH recovery after acidification, range 1 is % inhibition at 10 μM
# [1] = read-out: Activity range (inhibitory effect on NHE3)
# [2] = Activity range (inhibitory effect on NHE3)
SMILES,IC50 [1] [nM],further results
"CS(=O)(=O)c1ccc(O[C@H]2c3cc(Cl)cc(Cl)c3C[C@@H]2N2CC[C@H](O)C2)cc1 [Example 198, (S)-1-[trans-(1S,2S)-4,6-dichloro-1-(4-methanesulfonylphenoxy)indan-2-yl]pyrrolidin-3-ol]",< 1000,–
"CC(=O)Nc1cccc(O[C@@H]2c3ccccc3C[C@H]2N2CCC(N)C2)c1 (mixture of isomers) [Example 687, N-{3-[rac-trans-(1,2)-2-(3-aminopyrrolidin-1-yl)indan-1-yloxy]phenyl}acetamide]",1000 to 10000,–
"C[C@]1(O)CCN([C@H]2Cc3c(Cl)cc(Cl)cc3[C@@H]2Oc2ccc(S(C)(=O)=O)cc2)C1 (racemic) [Example 146, (S)-1-[(1S,2S)-4,6-dichloro-1-(4-methanesulfonylphenoxy)indan-2-yl]-3-methylpyrrolidin-3-ol]",1000 to 10000,–
"Cc1nnc(C)n1-c1ccc(O[C@H]2c3ccccc3C[C@@H]2N2CCC[C@@H](NCCC(F)(F)F)C2)cc1 [Example 1, ((R)-1-{trans-(1S,2S)-1-[4-(3,5-dimethyl-[1,2,4]triazol-4-yl)phenoxy]indan-2-yl}piperidin-3-yl)-(3,3,3-trifluoropropyl)amine]",1000 to 10000,–
"N[C@@H]1CCCN([C@H]2CCc3ccccc3[C@@H]2Oc2ccc(N3C(=O)CCC3=O)cc2)C1 (racemic) [Example 326, 1-{4-[rac-trans-(1,2)-2-((R)-3-aminopiperidin-1-yl)-1,2,3,4-tetrahydronaphthalen-1-yloxy]phenyl}pyrrolidine-2,5-dione]",1000 to 10000,–
"c1ccc2c(c1)C[C@@H](N1C[C@H]3CNC[C@H]3C1)[C@@H]2Oc1cccc2[nH]ccc12 (racemic) [Example 504, 4-[rac-trans-(1,2)-2-(Hexahydropyrrolo[3,4-c]pyrrol-2-yl)indan-1-yloxy]-1H-indole]",1000 to 10000,–
"CN(C)S(=O)(=O)c1cc(Cl)c(O[C@H]2c3ccccc3C[C@@H]2N2CCCC2)c(Cl)c1 (racemic) [Example 403, 3,5-dichloro-N,N-dimethyl-4-(rac-trans-(1,2)-2-pyrrolidin-1-ylindan-1-yloxy)benzenesulfonamide]",1000 to 10000,–
"Cn1ccn(-c2ccc(F)c(O[C@H]3c4cc(Cl)cc(Cl)c4C[C@@H]3N3CC[C@@H](O)C3)c2)c1=O [Example 313, 1-{3-[(1S,2S)-4,6-dichloro-2-((R)-3-hydroxypyrrolidin-1-yl)indan-1-yloxy]-4-fluorophenyl}-3-methyl-1,3-dihydroimidazol-2-one]",< 1000,–
"CS(=O)(=O)c1ccc(O[C@H]2c3cc(Cl)ccc3C[C@@H]2N2CCN(CCO)CC2)cc1 (racemic) [Example 384, 2-{4-[rac-trans-(1,2)-6-chloro-1-(4-methanesulfonylphenoxy)indan-2-yl]piperazin-1-yl}-ethanol]",–,inhibition at 10 µM [1]: 20 to 50%
"Cc1nnc(C)n1-c1ccc(O[C@H]2c3cc(Cl)ccc3C[C@@H]2N2CC[C@@H](O)C2)c(F)c1 [Example 143, (R)-1-{trans-(1S,2S)-6-chloro-1-[4-(3,5-dimethyl-[1,2,4]triazol-4-yl)-2-fluorophenoxy]indan-2-yl}pyrrolidin-3-ol]",< 1000,–
"N#Cc1c(F)cccc1O[C@H]1c2ccccc2CC[C@@H]1N1CCC[C@H](N)C1 (racemic) [Example 372, 2-[rac-trans-(1,2)-2-((S)-3-aminopiperidin-1-yl)-1,2,3,4-tetrahydronaphthalen-1-yloxy]-6-fluorobenzonitrile]",–,inhibition at 10 µM [1]: 20 to 50%
"N#Cc1ccc(O[C@H]2c3ccccc3C[C@@H]2N2CCCC2)cc1Cl (racemic) [Example 392, 2-chloro-4-(rac-trans-(1,2)-2-pyrrolidin-1-ylindan-1-yloxy)benzonitrile]",–,IC50 [2]: 1000 to 10000 nM
"Clc1cc(Cl)c2c(c1)[C@H](Oc1ccc(-n3cncn3)cc1)[C@@H](N1CCOCC1)C2 (racemic) [Example 549, 4-[rac-trans-(1,2)-4,6-dichloro-1-(4-[1,2,4]triazol-1-ylphenoxy)indan-2-yl]morpholine]",–,inhibition at 10 µM [1]: 20 to 50%
"O=C1CCC(=O)N1c1ccc(O[C@H]2c3cc(Cl)cc(F)c3C[C@@H]2NC2CCCC2)c(F)c1 [Example 752, 1-[4-(trans-(1S,2S)-6-Chloro-2-cyclopentylamino-4-fluoro-indan-1-yloxy)-3-fluoro-phenyl]-pyrrolidine-2,5-dione]",1000 to 10000,–
"COCCc1ccc(O[C@@H]2c3ccccc3C[C@H]2N2CCC(N)C2)cc1 (mixture of isomers) [Example 342, 1-{rac-trans-(1,2)-1-[4-(2-methoxyethyl)phenoxy]indan-2-yl}pyrrolidin-3-ylamine]",1000 to 10000,–
"CCN(CC)[C@@H]1Cc2ccccc2[C@H]1Oc1ccc(N2CCNCC2)cc1 (racemic) [Example 627, Diethyl-[rac-trans-(1,2)-1-(4-piperazin-1-ylphenoxy)indan-2-yl]amine]",–,IC50 [2]: 1000 to 10000 nM
"Cc1nnc(C)n1-c1ccc(O[C@H]2c3cc(Cl)cc(Cl)c3C[C@@H]2N2CC[C@@H](O)C2)cc1 [Example 133, (R)-1-{trans-(1S,2S)-4,6-dichloro-1-[4-(3,5-dimethyl-[1,2,4]triazol-4-yl)phenoxy]indan-2-yl}pyrrolidin-3-ol]",< 1000,–
"CCN(CC)[C@@H]1Cc2ccccc2[C@H]1Oc1cccc(N2CCNCC2)c1 (racemic) [Example 626, Diethyl-[rac-trans-(1,2)-1-(3-piperazin-1-ylphenoxy)indan-2-yl]amine]",1000 to 10000,–
"N#Cc1cc(Br)ccc1O[C@H]1c2ccccc2CC[C@@H]1N1CCC[C@@H](N)C1 (racemic) [Example 369, 2-[rac-trans-(1,2)-2-((S)-3-aminopiperidin-1-yl)-1,2,3,4-tetrahydronaphthalen-1-yloxy]-5-bromobenzonitrile]",–,inhibition at 10 µM [1]: 20 to 50%
"CC(=O)Nc1cccc(O[C@H]2c3cc(Cl)cc(Cl)c3C[C@@H]2N2CCNCC2)c1 (racemic) [Example 647, N-[3-(rac-trans-(1,2)-4,6-dichloro-2-piperazin-1-ylindan-1-yloxy)phenyl]acetamide]",1000 to 10000,–
"CS(=O)(=O)c1ccc(CO[C@H]2c3cc(Cl)cc(Cl)c3C[C@@H]2N2CC[C@@H](O)C2)c(Cl)c1 [Example 24, (R)-1-[(1S,2S)-4,6-dichloro-1-(2-chloro-4-methanesulfonylbenzyloxy)indan-2-yl]pyrrolidin-3-ol]",–,inhibition at 10 µM [1]: 20 to 50%
"CCc1ccc(O[C@@H]2c3ccccc3C[C@H]2N2CCC[C@@H](N)C2)c(C(C)(C)C)c1 (racemic) [Example 49, (R)-1-[rac-trans-(1,2)-1-(2-tert-butyl-4-ethylphenoxy)indan-2-yl]piperidin-3-ylamine]",1000 to 10000,–
"CCN(CC)[C@@H]1Cc2ccccc2[C@H]1Oc1cccc(NC(C)=O)c1 (racemic) [Example 637, N-[3-(rac-trans-(1,2)-2-diethylaminoindan-1-yloxy)phenyl]acetamide]",1000 to 10000,–
"CCN(CC)C(=O)c1ccc(O[C@H]2c3ccccc3C[C@@H]2N2CCCC2)cc1 (racemic) [Example 633, N,N-diethyl-4-(rac-trans-(1,2)-2-pyrrolidin-1-ylindan-1-yloxy)benzamide]",–,IC50 [2]: 1000 to 10000 nM
"CS(=O)(=O)c1ccc(O[C@H]2c3ccccc3C[C@@H]2N2CCCC(NCC(F)(F)F)C2)cc1 (stereo partly drawn) [Example 219, {(R)-1-[trans-(1S,2S)-1-(4-methanesulfonylphenoxy)indan-2-yl]piperidin-3-yl}-(2,2,2-trifluoroethyl)amine]",–,inhibition at 10 µM [1]: 20 to 50%
"CS(=O)(=O)c1ccc(O[C@H]2c3cc(Cl)cc(Cl)c3C[C@@H]2N2CCC(F)(F)CC2)cc1 [Example 250, 1-[(1S,2S)-4,6-dichloro-1-(4-methanesulfonylphenoxy)indan-2-yl]-4,4-difluoropiperidine]",–,inhibition at 10 µM [1]: 20 to 50%
"Cc1cc(-n2c(C)nnc2C)ccc1O[C@H]1c2cc(Cl)cc(Cl)c2C[C@@H]1N1CC[C@@H](O)C1 [Example 131, (R)-1-{trans-(1S,2S)-4,6-dichloro-1-[4-(3,5-dimethyl-[1,2,4]triazol-4-yl)-2-methylphenoxy]indan-2-yl}pyrrolidin-3-ol]",< 1000,–
"N[C@H]1CCCN([C@H]2CCc3ccccc3[C@@H]2Oc2ccc(F)cc2)C1 (racemic) [Example 179, (S)-1-[rac-trans-(1,2)-1-(4-fluorophenoxy)-1,2,3,4-tetrahydronaphthalen-2-yl]piperidin-3-ylamine]",–,inhibition at 10 µM [1]: 20 to 50%
"CS(=O)(=O)c1ccc(O[C@@H]2c3cc(Cl)cc(Cl)c3C[C@H]2n2ccnc2)cc1 (racemic) [Example 278, 1-[rac-trans-(1,2)-4,6-dichloro-1-(4-methanesulfonylphenoxy)indan-2-yl]-1H-imidazole]",1000 to 10000,–
"Cc1nnc(C)n1-c1ccc(O[C@H]2c3cc(Cl)cc(Cl)c3C[C@@H]2N2CC[C@@H](O)C2)c(F)c1 [Example 130, (R)-1-{trans-(1S,2S)-4,6-dichloro-1-[4-(3,5-dimethyl-[1,2,4]triazol-4-yl)-2-fluorophenoxy]indan-2-yl}pyrrolidin-3-ol]",< 1000,–
